# Measured values taken from publication PMC9298194, “Clinical Pharmacokinetics of Daprodustat: Results of an Absorption, Distribution, and Excretion Study With Intravenous Microtracer and Concomitant Oral Doses for Bioavailability Determination” (Clinical Pharmacology in Drug Development, 2021).
# Like-named read-outs stand apart in the source and are kept apart here.
# What was measured:
# [1] = Plasma daprodustat pharmacokinetics in healthy male participants (6 mg oral tablet, 50 μg IV microtracer, 25 mg oral solution); format: in vivo, human; conditions: for AUC / tmax / Cmax / half-life: plasma daprodustat; for tmax: median (range); for Cmax: arithmetic mean (SD); for half-life: read-out: t½ (converted)
# Description: On day 1 of treatment period 1, after an overnight fast of at least 8 hours, each participant took a single 6 mg oral dose of daprodustat; participants continued to fast for < 3 hours when a small amount of food was administered to stimulate bile release for the Entero‐Test. After ≈1 hour, participants received 50 μg of [^14C]‐GSK1278863 (≈4.63 kBq; 125 nCi) by IV infusion over 1 hour. Blood samples were collected for 144 hours after oral dosing (until day 7). Participants were discharged on study day 7 after completion of the 144‐hour sample collection. The Entero‐Test was swallowed 3.5 hours before the oral dose of daprodustat (while in the fasted state) and removed 3 hours after the oral dose (about 1 hour after completion of the IV infusion). About 1.5 hours before string withdrawal, a food cue was used to stimulate gallbladder emptying.
# (§1) On day 1 of treatment period 2, after an overnight fast of at least 8 hours, each participant received 25 mg [^14C]‐GSK1278863 (≈2.31 MBq; 62.5 μCi) as an oral solution; participants continued to fast for 4 hours after dosing.[15] Blood, urine, and fecal samples were collected for a minimum of 144 hours (up to day 7) after dosing, depending on the amount of radioactivity excreted by each participant in excreta collected daily. Liquid scintillation counting (LSC) was performed on these excreta collections on an ongoing basis to assess recovery of the radioactivity dosed. Participants were discharged if ≥90% and <1% of the dose was excreted on both days 6 and 7.
# As per standard practice for administration of radiolabeled drug, the IV and oral dosing solutions were analyzed for daprodustat via assessment of the radioactivity and through application of the predetermined specific activity. Whole blood samples were collected for measurement of each of the following: blood total radioactivity in period 2 and plasma total radioactivity in period 1, plasma concentrations of daprodustat, and the 6 predominant circulating metabolites in periods 1 and 2. Blood samples were collected at 1, 3, and 6 hours after dosing for blood assessments. Blood samples were collected for plasma assessments before dosing and at 0.50, 1, 1.25, 1.5, 2, 3, 4, 6, 8, 10, 12, 24, 36, 48, 72, 96, 120, and 144 hours after dosing.
# Daprodustat and [^14C]‐GSK1278863 plasma concentrations were measured in treatment period 1: 6 mg daprodustat oral tablet, followed by a 1‐hour IV infusion of 50 μg [^14C]‐GSK1278863, started 1 hour after tablet administration, and in treatment period 2: 25 mg [^14C]‐GSK1278863 oral solution.
# Plasma samples from periods 1 and 2 were analyzed for daprodustat and its 6 metabolites by PPD Laboratories using a validated analytical method based on protein precipitation, followed by high‐performance liquid chromatography with tandem mass spectrometric detection analysis, as described previously.[7], [8] Specifically, the lower limit of quantification (LLQ) for this study was 0.100 ng/mL using a 100 μL aliquot of ethylenediaminetetraacetic acid plasma for all 7 analytes. The higher limit of quantification was 100 ng/mL for all 7 analytes. The data accuracy (% bias range: −2.21 to −0.400 to 0.560‐5.85) and precision (% coefficient of variation of 3.99‐7.13) met acceptable limits as recommended by the US Food and Drug Administration in their bioanalytical method validation guidelines.[17] Final PK concentration data for period 1 after 1‐hour samples for daprodustat were further corrected to account for radiolabeled ^14C dose.
# Plasma samples collected from period 1 were analyzed for [^14C]‐GSK1278863 by GSK using a validated analytical method, based on protein precipitation, followed by liquid chromatography–AMS analysis. The LLQ was 1.80 pg/mL, using a 600 μL aliquot of human plasma with a higher limit of quantification of 358.92 pg/mL. Accuracy for the 5 validation levels were between −9.2% and 2.2%, and precision was between 2.5% and 10.8%. […]
# [2] = Urine and fecal excretion of total radioactivity (mass balance); format: in vivo, human; conditions: 25 mg [14C] oral solution; for total radioactivity recovered (urinary + fecal): 96‐ to 120‐hour collection (day 5) onward
# Description: as §1
# Urine samples for measurement of total radioactivity excreted in urine were collected before dosing in period 1, then over the time periods 0 to 24, 24 to 48, 48 to 72, 72 to 96, 96 to 120, and 120 to 144 hours in period 2. An aliquot of each 24‐hour urine collection was shipped at ambient temperature to Covance (Harrogate, North Yorkshire, UK) for total radioactivity measurement by LSC. […] Total fecal samples were frozen at −70°C, then shipped on cold gel packs to Covance for total radioactivity measurement by LSC (following homogenization). Aliquots of both urine and fecal homogenates were also sent to GlaxoSmithKline (GSK) for characterization and quantification of metabolites (data not reported). • The following parameters were determined from the urine and fecal radiolabeled drug‐related material (total radioactivity) data: • Absolute amount excreted and percentage excreted in urine (Ae [urine] and Fe% [urine]) within each collection period and cumulative urinary recovery and fraction excreted over the total collection period • Absolute amount excreted and percentage excreted in feces (Ae [fecal] and Fe% [fecal]) with each collection period and cumulative fecal recovery and fraction excreted over the total collection period and cumulatively over the collection period
# Total excretion (sum of urine and fecal excretion), Ae [total], and Fe% [total] were calculated by collection interval for each participant. […]
# [3] = 39‐week study in monkeys; cited from earlier work
# [4] = 6 mg tablet vs 50 μg IV dose (120-fold dose difference), period 1
# [5] = 25 mg oral solution vs 6 mg oral tablet (4.17-fold dose difference)
compound,measurement,setting,value
O=C(O)CNC(=O)C1C(=O)N(C2CCCCC2)C(=O)N(C2CCCCC2)C1=O [Daprodustat],absolute bioavailability (oral F),"[1]; 6 mg oral tablet, based on AUC0‐inf",66.1%
same,"fold difference in mean AUC0‐t, oral tablet vs IV",[1]; [4],75.0 fold
same,"fold difference in mean Cmax, oral tablet vs IV",[1]; [4],47.2 fold
same,"fold increase in total exposure (AUC0‐inf), solution vs tablet",[1]; 25 mg oral solution vs 6 mg oral tablet,4.84 fold
same,"fold increase in mean AUC0‐t, solution vs tablet",[1]; [5],4.84 fold
same,"fold increase in mean Cmax, solution vs tablet",[1]; [5],5.86 fold
same,Oral F (0‐inf),"[1]; absolute bioavailability, 6 mg oral tablet vs IV microtracer, fraction, mean (SD), n = 3",0.661 (0.077)
same,clearance,"[1]; male, human, blood, 50 μg, translated from plasma CL after IV administration, read-out: blood CL (converted)",~250 mL/min
same,AUC,"[1]; male, human, plasma, iv, 50 μg, [14C] 50 μg IV infusion, mean (SD), n = 3, read-out: AUC0‐inf",2.71 ng·h/mL
same,AUC,"[1]; male, human, plasma, iv, 50 μg, [14C] 50 μg IV infusion, mean (SD), read-out: AUC0‐t",2.68 ng·h/mL
same,tmax,"[1]; male, human, plasma, iv, 50 μg, [14C] 50 μg IV infusion, read-out: tmax",1 h
same,bioavailability,"[1]; male, human, plasma, po, 6 mg, 6 mg oral tablet, based on AUC0‐inf, read-out: absolute bioavailability (oral F)",~66%
same,AUC,"[1]; male, human, plasma, po, 6 mg, 6 mg oral tablet, mean (SD), read-out: AUC0‐inf",202 ng·h/mL
same,AUC,"[1]; male, human, plasma, po, 6 mg, 6 mg oral tablet, mean (SD), read-out: AUC0‐t",201 ng·h/mL
same,tmax,"[1]; male, human, plasma, po, 6 mg, 6 mg oral tablet, read-out: tmax",~2 h
same,AUC,"[1]; male, human, plasma, po, 25 mg, [14C] 25 mg oral solution, mean (SD), read-out: AUC0‐inf",974 ng·h/mL
same,AUC,"[1]; male, human, plasma, po, 25 mg, [14C] 25 mg oral solution, mean (SD), read-out: AUC0‐t",972 ng·h/mL
same,tmax,"[1]; male, human, plasma, po, 25 mg, [14C] 25 mg oral solution, read-out: tmax",~0.5 h
same,Vd,"[1]; male, human, plasma, [14C] 50 μg IV infusion, mean (SD), n = 3, read-out: Vss",14.6 L
same,clearance,"[1]; male, human, plasma clearance, [14C] 50 μg IV infusion, mean (SD), n = 3, read-out: CL (converted)",322 mL/min
same,Cmax,"[1]; male, human, 6 mg oral tablet",97.3 ng/mL
same,half-life,"[1]; male, human, 6 mg oral tablet, mean (SD)",1.92 h
same,Cmax,"[1]; male, human, [14C] 50 μg IV infusion over 1 h",2.06 ng/mL
same,half-life,"[1]; male, human, [14C] 50 μg IV infusion, mean (SD), n = 3",2.07 h
same,Cmax,"[1]; male, human, [14C] 25 mg oral solution",570 ng/mL
same,half-life,"[1]; male, human, [14C] 25 mg oral solution, mean (SD)",2.6 h
same,tmax,[1]; 6 mg oral tablet,2.12 (1.42−4.00) h
same,tmax,[1]; [14C] 50 μg IV infusion,0.983 (0.983−0.983) h
same,tmax,[1]; [14C] 25 mg oral solution,0.500 (0.500−0.517) h
same,unchanged daprodustat excreted in urine,[2],≈ 0.5 % of the administered radioactivity
same,total radioactivity recovered (urinary + fecal),[2],≈ 95 % of the administered radioact
same,total radioactivity recovered (urinary + fecal),[2]; listed as [^14C]‐GSK1278863,≈ 95 % of the administered radioactivity
same,doses at which gastric erosions were observed,[3],≥ 10 mg/kg/day
same,no observed adverse effect level,[3],3 mg/kg/day
